{"source": "the NIST ThermoML archive (doi:10.1016/j.jct.2016.11.002)", "key": {"[1]": {"test": "xn = mol fraction of the nth substance listed", "conditions": "100 kPa, Liquid, x1 = 1; for speed of sound: Frequency=3 MHz, Single path-length method; for mass density: Vibrating tube method"}, "[2]": {"test": "refractive index (Na D-line) (dimensionless); xn = mol fraction of the nth substance listed", "conditions": "100 kPa, Liquid, Standard Abbe refractometry, x1 = 1"}, "[3]": {"conditions": "100 kPa, Liquid; for speed of sound: Frequency=3 MHz, Single path-length method; for mass density: Vibrating tube method"}, "[4]": {"test": "refractive index (Na D-line) (dimensionless)", "conditions": "100 kPa, Liquid, Standard Abbe refractometry"}}, "note": "“And” between values parts separate entries of the source, which are not always exact repeats. Identical values can stand only once. ± gives the expanded uncertainty stated by the source."}
{"molecule": "CCOC(=O)OCC", "note": "[diethyl carbonate] + COCCO", "values": [{"measurement": "speed of sound", "setting": "[1]; 298.15 K", "value": "1177.5 ± 1.4", "unit": "m/s"}, {"measurement": "mass density", "setting": "[1]; 298.15 K", "value": "969.1 ± 1", "unit": "kg/m3"}, {"measurement": "speed of sound", "setting": "[1]; 303.15 K", "value": "1156.9 ± 1.4", "unit": "m/s"}, {"measurement": "mass density", "setting": "[1]; 303.15 K", "value": "963.47 ± 1", "unit": "kg/m3"}, {"measurement": "speed of sound", "setting": "[1]; 308.15 K", "value": "1136.6 ± 1.4", "unit": "m/s"}, {"measurement": "mass density", "setting": "[1]; 308.15 K", "value": "957.81 ± 1", "unit": "kg/m3"}, {"measurement": "speed of sound", "setting": "[1]; 313.15 K", "value": "1116.5 ± 1.4", "unit": "m/s"}, {"measurement": "mass density", "setting": "[1]; 313.15 K", "value": "952.13 ± 1", "unit": "kg/m3"}, {"measurement": "speed of sound", "setting": "[1]; 318.15 K", "value": "1096.5 ± 1.4", "unit": "m/s"}, {"measurement": "mass density", "setting": "[1]; 318.15 K", "value": "946.43 ± 1", "unit": "kg/m3"}, {"measurement": "speed of sound", "setting": "[1]; 323.15 K", "value": "1076.7 ± 1.4", "unit": "m/s"}, {"measurement": "mass density", "setting": "[1]; 323.15 K", "value": "940.69 ± 1", "unit": "kg/m3"}, {"measurement": "refractive index", "setting": "[2]; 298.15 K", "value": "1.3825 ± 0.0016"}, {"measurement": "refractive index", "setting": "[2]; 303.15 K", "value": "1.3802 ± 0.0016"}, {"measurement": "refractive index", "setting": "[2]; 308.15 K", "value": "1.3779 ± 0.0016"}, {"measurement": "refractive index", "setting": "[2]; 313.15 K", "value": "1.3756 ± 0.0016"}, {"measurement": "refractive index", "setting": "[2]; 318.15 K", "value": "1.3733 ± 0.0016"}, {"measurement": "refractive index", "setting": "[2]; 323.15 K", "value": "1.371 ± 0.0016"}]}
{"molecule": "CCOC(=O)OCC", "note": "[diethyl carbonate] + CCOCCO", "values": [{"measurement": "speed of sound", "setting": "[1]; 298.15 K", "value": "1177.5 ± 1.4", "unit": "m/s"}, {"measurement": "mass density", "setting": "[1]; 298.15 K", "value": "969.1 ± 1", "unit": "kg/m3"}, {"measurement": "speed of sound", "setting": "[1]; 303.15 K", "value": "1156.9 ± 1.4", "unit": "m/s"}, {"measurement": "mass density", "setting": "[1]; 303.15 K", "value": "963.47 ± 1", "unit": "kg/m3"}, {"measurement": "speed of sound", "setting": "[1]; 308.15 K", "value": "1136.6 ± 1.4", "unit": "m/s"}, {"measurement": "mass density", "setting": "[1]; 308.15 K", "value": "957.81 ± 1", "unit": "kg/m3"}, {"measurement": "speed of sound", "setting": "[1]; 313.15 K", "value": "1116.5 ± 1.4", "unit": "m/s"}, {"measurement": "mass density", "setting": "[1]; 313.15 K", "value": "952.13 ± 1", "unit": "kg/m3"}, {"measurement": "speed of sound", "setting": "[1]; 318.15 K", "value": "1096.5 ± 1.4", "unit": "m/s"}, {"measurement": "mass density", "setting": "[1]; 318.15 K", "value": "946.43 ± 1", "unit": "kg/m3"}, {"measurement": "speed of sound", "setting": "[1]; 323.15 K", "value": "1076.7 ± 1.4", "unit": "m/s"}, {"measurement": "mass density", "setting": "[1]; 323.15 K", "value": "940.69 ± 1", "unit": "kg/m3"}, {"measurement": "refractive index", "setting": "[2]; 298.15 K", "value": "1.3825 ± 0.0016"}, {"measurement": "refractive index", "setting": "[2]; 303.15 K", "value": "1.3802 ± 0.0016"}, {"measurement": "refractive index", "setting": "[2]; 308.15 K", "value": "1.3779 ± 0.0016"}, {"measurement": "refractive index", "setting": "[2]; 313.15 K", "value": "1.3756 ± 0.0016"}, {"measurement": "refractive index", "setting": "[2]; 318.15 K", "value": "1.3733 ± 0.0016"}, {"measurement": "refractive index", "setting": "[2]; 323.15 K", "value": "1.371 ± 0.0016"}]}
{"molecule": "CCOCCO", "note": "[2-ethoxyethan-1-ol]", "values": [{"measurement": "speed of sound", "setting": "[3]; 298.15 K", "value": "1302.8 ± 1.3", "unit": "m/s"}, {"measurement": "mass density", "setting": "[3]; 298.15 K", "value": "925.54 ± 1", "unit": "kg/m3"}, {"measurement": "speed of sound", "setting": "[3]; 303.15 K", "value": "1285 ± 1.3", "unit": "m/s"}, {"measurement": "mass density", "setting": "[3]; 303.15 K", "value": "920.99 ± 1", "unit": "kg/m3"}, {"measurement": "speed of sound", "setting": "[3]; 308.15 K", "value": "1267.3 ± 1.3", "unit": "m/s"}, {"measurement": "mass density", "setting": "[3]; 308.15 K", "value": "916.41 ± 1", "unit": "kg/m3"}, {"measurement": "speed of sound", "setting": "[3]; 313.15 K", "value": "1249.6 ± 1.3", "unit": "m/s"}, {"measurement": "mass density", "setting": "[3]; 313.15 K", "value": "911.8 ± 1", "unit": "kg/m3"}, {"measurement": "speed of sound", "setting": "[3]; 318.15 K", "value": "1232 ± 1.3 m/s and 1231.5 ± 1.3 m/s"}, {"measurement": "mass density", "setting": "[3]; 318.15 K", "value": "907.15 ± 1", "unit": "kg/m3"}, {"measurement": "speed of sound", "setting": "[3]; 323.15 K", "value": "1214.3 ± 1.3", "unit": "m/s"}, {"measurement": "mass density", "setting": "[3]; 323.15 K", "value": "902.46 ± 1", "unit": "kg/m3"}, {"measurement": "refractive index", "setting": "[4]; 298.15 K", "value": "1.4055 ± 0.0016"}, {"measurement": "refractive index", "setting": "[4]; 303.15 K", "value": "1.4042 ± 0.0016"}, {"measurement": "refractive index", "setting": "[4]; 308.15 K", "value": "1.4028 ± 0.0016"}, {"measurement": "refractive index", "setting": "[4]; 313.15 K", "value": "1.4016 ± 0.0016"}, {"measurement": "refractive index", "setting": "[4]; 318.15 K", "value": "1.4001 ± 0.0016"}, {"measurement": "refractive index", "setting": "[4]; 323.15 K", "value": "1.3988 ± 0.0016"}]}
{"molecule": "CCOC(=O)OCC", "note": "[diethyl carbonate] + CCCOCCO", "values": [{"measurement": "speed of sound", "setting": "[1]; 298.15 K", "value": "1177.5 ± 1.4", "unit": "m/s"}, {"measurement": "mass density", "setting": "[1]; 298.15 K", "value": "969.1 ± 1", "unit": "kg/m3"}, {"measurement": "speed of sound", "setting": "[1]; 303.15 K", "value": "1156.9 ± 1.4", "unit": "m/s"}, {"measurement": "mass density", "setting": "[1]; 303.15 K", "value": "963.47 ± 1", "unit": "kg/m3"}, {"measurement": "speed of sound", "setting": "[1]; 308.15 K", "value": "1136.6 ± 1.4", "unit": "m/s"}, {"measurement": "mass density", "setting": "[1]; 308.15 K", "value": "957.81 ± 1", "unit": "kg/m3"}, {"measurement": "speed of sound", "setting": "[1]; 313.15 K", "value": "1116.5 ± 1.4", "unit": "m/s"}, {"measurement": "mass density", "setting": "[1]; 313.15 K", "value": "952.13 ± 1", "unit": "kg/m3"}, {"measurement": "speed of sound", "setting": "[1]; 318.15 K", "value": "1096.5 ± 1.4", "unit": "m/s"}, {"measurement": "mass density", "setting": "[1]; 318.15 K", "value": "946.43 ± 1", "unit": "kg/m3"}, {"measurement": "speed of sound", "setting": "[1]; 323.15 K", "value": "1076.7 ± 1.4", "unit": "m/s"}, {"measurement": "mass density", "setting": "[1]; 323.15 K", "value": "940.69 ± 1", "unit": "kg/m3"}, {"measurement": "refractive index", "setting": "[2]; 298.15 K", "value": "1.3825 ± 0.0016"}, {"measurement": "refractive index", "setting": "[2]; 303.15 K", "value": "1.3802 ± 0.0016"}, {"measurement": "refractive index", "setting": "[2]; 308.15 K", "value": "1.3779 ± 0.0016"}, {"measurement": "refractive index", "setting": "[2]; 313.15 K", "value": "1.3756 ± 0.0016"}, {"measurement": "refractive index", "setting": "[2]; 318.15 K", "value": "1.3733 ± 0.0016"}, {"measurement": "refractive index", "setting": "[2]; 323.15 K", "value": "1.371 ± 0.0016"}]}
{"molecule": "COCCO", "note": "[2-methoxyethan-1-ol]", "values": [{"measurement": "speed of sound", "setting": "[3]; 298.15 K", "value": "1342.1 ± 1.3", "unit": "m/s"}, {"measurement": "mass density", "setting": "[3]; 298.15 K", "value": "960.32 ± 1", "unit": "kg/m3"}, {"measurement": "speed of sound", "setting": "[3]; 303.15 K", "value": "1324.7 ± 1.3", "unit": "m/s"}, {"measurement": "mass density", "setting": "[3]; 303.15 K", "value": "955.71 ± 1", "unit": "kg/m3"}, {"measurement": "speed of sound", "setting": "[3]; 308.15 K", "value": "1307.4 ± 1.3", "unit": "m/s"}, {"measurement": "mass density", "setting": "[3]; 308.15 K", "value": "951.08 ± 1", "unit": "kg/m3"}, {"measurement": "speed of sound", "setting": "[3]; 313.15 K", "value": "1290 ± 1.3", "unit": "m/s"}, {"measurement": "mass density", "setting": "[3]; 313.15 K", "value": "946.42 ± 1", "unit": "kg/m3"}, {"measurement": "speed of sound", "setting": "[3]; 318.15 K", "value": "1272.7 ± 1.3", "unit": "m/s"}, {"measurement": "mass density", "setting": "[3]; 318.15 K", "value": "941.72 ± 1", "unit": "kg/m3"}, {"measurement": "speed of sound", "setting": "[3]; 323.15 K", "value": "1255.4 ± 1.3", "unit": "m/s"}, {"measurement": "mass density", "setting": "[3]; 323.15 K", "value": "936.89 ± 1", "unit": "kg/m3"}, {"measurement": "refractive index", "setting": "[4]; 298.15 K", "value": "1.4001 ± 0.0016"}, {"measurement": "refractive index", "setting": "[4]; 303.15 K", "value": "1.3981 ± 0.0016"}, {"measurement": "refractive index", "setting": "[4]; 308.15 K", "value": "1.3961 ± 0.0016"}, {"measurement": "refractive index", "setting": "[4]; 313.15 K", "value": "1.3943 ± 0.0016"}, {"measurement": "refractive index", "setting": "[4]; 318.15 K", "value": "1.3922 ± 0.0016"}, {"measurement": "refractive index", "setting": "[4]; 323.15 K", "value": "1.3902 ± 0.0016"}]}
